In patent US20190119284A1, “ErbB Inhibitors and Uses Thereof” (The Regents of the University of California, priority 2016, published 2019):
Values belong to the compound of their own block, whether it stands above or below them.

How the values were obtained:
[1] = tested on: HER2/HER3 signaling in CW-2 cells (HER3 E928G); assay: HER2/HER3 signaling in CW-2 cells +/- NRG, 1 h; assay type: cell-based; conditions: CW-2, dose response
[2] = tested on: HER2 mutants biased towards the active conformation (NCI-H1781 cells); assay: signaling in NCI-H1781 cells after 15 min; assay type: cell-based; conditions: NCI-H1781, dose response
[3] = tested on: HER2/HER3 signaling in SK-BR-3 cells; assay: HER2/HER3 signaling in SK-BR-3 cells (immunoblot); assay type: cell-based; conditions: serum-starved SK-BR-3 cells; drug added 15 min before NRG
SK-BR-3 cells = assay: 72 h proliferation of SK-BR-3 cells in the presence or absence of NRG; assay type: cell-based; conditions: SK-BR-3, 72 h dose response +/- NRG
Procedure: FIGS. 1A-1E. NRG rescues HER2 over-expressing cancer cells from HER2 inhibitors. […] FIG 1B: Same experiment as depicted in FIG. 1A, but with the inhibitor TAK-285. FIG. 1C: The ability of NRG to rescue SK-BR-3 and BT-474 cell proliferation from HER2 inhibitors is dose dependent. Cells were treated with 1 μM of the indicated inhibitor in the presence of varying concentrations of NRG, and proliferation was read out after 72 h (mean±SD, n=3). […] FIG. 1E: Cartoon schematic of the EGFR family kinase domain asymmetric dimer. The C-terminal domain of the ‘activator’ kinase (right) interacts with the N-terminal portion of the ‘receiver’ kinase (left). This interaction stabilizes the active conformation of the receiver kinase identified by the ‘in’ conformation of the receiver kinase's α-C helix and the ordered extension of the activation loop.
FIGS. 5A-5D. […] FIG. 5A: Chemical structure of compound 3 (also referred to herein as compound 178). FIG. 5B: Proliferation curves for compound 3 against the Ba/F3 cell line panel (mean±SD, n=3). […] FIG. 5D: The same assay in FIG. 2A was performed with compound 3 in SK-BR-3 cells.

[4] = tested on: HER2/HER3 signaling in CHL-1 cells; assay: HER2/HER3 signaling in CHL-1 cells; assay type: cell-based; conditions: compared with lapatinib
[5] = tested on: HER2/HER3 signaling in FaDu cells; assay: HER2/HER3 signaling in FaDu cells, 24 h; assay type: cell-based; conditions: dose response 24 h, compared with lapatinib
Source text: FIGS. 20A-20B. […] FIG. 20A. […] FIG. 20B.

TYK2 = TYK2 (Homo sapiens, UniProt P29597); assay: Nanosyn in vitro kinase profiling: TYK2; assay type: biochemical; conditions: compound at 1 μM
CDK1 = CDK1 (Homo sapiens, UniProt P06493); assay: Nanosyn in vitro kinase profiling: CDK1; assay type: biochemical; conditions: compound at 1 μM
CAMK4 = CAMK4 (Homo sapiens, UniProt Q16566); assay: Nanosyn in vitro kinase profiling: CAMK4; assay type: biochemical; conditions: compound at 1 μM
HER2 kinase domain = biological target: T1, HER2 kinase domain (Homo sapiens, UniProt P04626); assay: In vitro HER2 Kinase Assay; assay type: biochemical; conditions: 50 μM ATP
T1 construct: In vitro kinase assays with the HER2 kinase domain (SignalChem) were performed in triplicate; purchased SignalChem
Procedure: In vitro HER2 Kinase Assay. In vitro kinase assays with the HER2 kinase domain (SignalChem) were performed in triplicate as follows. To 9 μL of a 2.5× solution of kinase and substrate in reaction buffer was added 3 μL of a 5× DMSO or inhibitor dilution in 10% DMSO:water. The inhibitor/kinase solution was incubated at room temperature for 10 minutes. The kinase assay was initiated by the addition of 3 μL of a 5× solution of ATP, and ran for 15 minutes. The final reaction conditions were 50 mM Tris (pH7.4), 5 mM MnCl2, 0.01% Tween-20, 2 mM DTT, 100 μM E4Y substrate (SignalChem), 15 nM HER2, 2% DMSO, 50 μM ATP, and 1 μCi γ^32P-ATP. After 15 minutes, 3 μL of each reaction was pipetted onto phosphocellulose sheets (P81, Whatman) and allowed to dry. The sheets were then washed 4×5 min with a solution of 0.5% phosphoric acid, dried, and exposed to a phosphor screen overnight. Phosphorimaging was conducted on a Typhoon 9500, image intensities were quantified in ImageQuant 5.2, normalized to the DMSO control and plotted in GraphPad Prism 6.

ErbB3-ICD665-1323 = biological target: T2, ErbB3-ICD665-1323 (Homo sapiens, UniProt P21860); assay: HER3 Autophosphorylation Assay; assay type: biochemical; conditions: purified clustered HER3 intracellular domain
T2 construct: The HER3 intracellular domain (665-1323) was concentrated on vesicles; made in house
Procedure: HER3 Autophosphorylation Assay. ErbB3-ICD^665-1323 wild-type expression and purification was performed exactly as previously described. To monitor the change in autophosphorylation, 1 μM ErbB3-ICD^665-1323 protein was incubated with inhibitors (varied concentrations noted in the figure) and DOGS-Ni-NTA (prepared as described in Zhang et al.[4]) in 100 mM MOPS pH 7.4, containing 200 mM NaCl, divalent cations (2 mM MnCl2 plus 5 mM MgCl2), 5% glycerol, 0.1 mM DTT and 200 μM ATP for 1 hour at 25 ° C., and the reactions were stopped by adding 50 mM EDTA and SDS-PAGE gel-loading buffer for rapid qualitative comparison of autophosphorylation by SDS-PAGE and immunoblotting with anti-phosphotyrosine (pY20) and anti-(His)5.

TIE2 = TIE2 (Homo sapiens, UniProt Q02763); assay: Nanosyn in vitro kinase profiling: TIE2; assay type: biochemical
Procedure: (§1) This was confirmed by in vitro profiling against a panel of kinases, with compound 2 only showing potent inhibition of EGFR and Ab1 (Table 2).
(§2) In vitro Kinome Screen. In vitro profiling of compound 2 at 100 nM was conducted by Nanosyn.

ALK = ALK (Homo sapiens, UniProt Q9UM73); assay: Nanosyn in vitro kinase profiling: ALK; assay type: biochemical
Procedure: as §1, §2

EPH-B4 = EPH-B4 (Homo sapiens, UniProt P54760); assay: Nanosyn in vitro kinase profiling: EPH-B4; assay type: biochemical
Procedure: as §1, §2

Chain of EPH-B4 (P54760 16-987, species assumed): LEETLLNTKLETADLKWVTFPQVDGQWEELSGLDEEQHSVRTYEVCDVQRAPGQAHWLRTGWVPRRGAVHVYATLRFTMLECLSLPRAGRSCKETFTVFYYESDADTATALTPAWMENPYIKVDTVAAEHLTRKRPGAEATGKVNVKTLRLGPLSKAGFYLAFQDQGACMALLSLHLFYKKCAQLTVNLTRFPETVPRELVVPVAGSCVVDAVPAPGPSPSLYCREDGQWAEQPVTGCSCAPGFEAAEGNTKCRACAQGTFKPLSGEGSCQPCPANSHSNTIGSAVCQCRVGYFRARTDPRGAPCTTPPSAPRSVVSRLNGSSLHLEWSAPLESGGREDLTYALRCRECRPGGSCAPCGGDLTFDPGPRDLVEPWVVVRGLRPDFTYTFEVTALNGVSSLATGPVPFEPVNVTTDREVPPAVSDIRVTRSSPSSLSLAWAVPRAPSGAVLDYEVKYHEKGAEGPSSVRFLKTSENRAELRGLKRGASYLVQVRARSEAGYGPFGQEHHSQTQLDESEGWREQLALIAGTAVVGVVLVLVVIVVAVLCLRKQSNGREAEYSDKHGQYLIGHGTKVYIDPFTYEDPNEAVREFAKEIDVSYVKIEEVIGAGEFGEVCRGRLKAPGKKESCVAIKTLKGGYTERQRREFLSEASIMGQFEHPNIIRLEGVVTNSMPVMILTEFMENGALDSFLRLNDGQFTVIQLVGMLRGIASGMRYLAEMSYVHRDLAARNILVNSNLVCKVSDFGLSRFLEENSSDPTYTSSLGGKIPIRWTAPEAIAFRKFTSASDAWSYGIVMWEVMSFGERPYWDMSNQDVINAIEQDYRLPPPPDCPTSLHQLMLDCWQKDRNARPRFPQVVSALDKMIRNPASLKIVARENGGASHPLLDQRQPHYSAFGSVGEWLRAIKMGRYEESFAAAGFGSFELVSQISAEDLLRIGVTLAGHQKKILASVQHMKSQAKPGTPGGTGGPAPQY
Chain of ALK (Q9UM73 19-1620, species assumed): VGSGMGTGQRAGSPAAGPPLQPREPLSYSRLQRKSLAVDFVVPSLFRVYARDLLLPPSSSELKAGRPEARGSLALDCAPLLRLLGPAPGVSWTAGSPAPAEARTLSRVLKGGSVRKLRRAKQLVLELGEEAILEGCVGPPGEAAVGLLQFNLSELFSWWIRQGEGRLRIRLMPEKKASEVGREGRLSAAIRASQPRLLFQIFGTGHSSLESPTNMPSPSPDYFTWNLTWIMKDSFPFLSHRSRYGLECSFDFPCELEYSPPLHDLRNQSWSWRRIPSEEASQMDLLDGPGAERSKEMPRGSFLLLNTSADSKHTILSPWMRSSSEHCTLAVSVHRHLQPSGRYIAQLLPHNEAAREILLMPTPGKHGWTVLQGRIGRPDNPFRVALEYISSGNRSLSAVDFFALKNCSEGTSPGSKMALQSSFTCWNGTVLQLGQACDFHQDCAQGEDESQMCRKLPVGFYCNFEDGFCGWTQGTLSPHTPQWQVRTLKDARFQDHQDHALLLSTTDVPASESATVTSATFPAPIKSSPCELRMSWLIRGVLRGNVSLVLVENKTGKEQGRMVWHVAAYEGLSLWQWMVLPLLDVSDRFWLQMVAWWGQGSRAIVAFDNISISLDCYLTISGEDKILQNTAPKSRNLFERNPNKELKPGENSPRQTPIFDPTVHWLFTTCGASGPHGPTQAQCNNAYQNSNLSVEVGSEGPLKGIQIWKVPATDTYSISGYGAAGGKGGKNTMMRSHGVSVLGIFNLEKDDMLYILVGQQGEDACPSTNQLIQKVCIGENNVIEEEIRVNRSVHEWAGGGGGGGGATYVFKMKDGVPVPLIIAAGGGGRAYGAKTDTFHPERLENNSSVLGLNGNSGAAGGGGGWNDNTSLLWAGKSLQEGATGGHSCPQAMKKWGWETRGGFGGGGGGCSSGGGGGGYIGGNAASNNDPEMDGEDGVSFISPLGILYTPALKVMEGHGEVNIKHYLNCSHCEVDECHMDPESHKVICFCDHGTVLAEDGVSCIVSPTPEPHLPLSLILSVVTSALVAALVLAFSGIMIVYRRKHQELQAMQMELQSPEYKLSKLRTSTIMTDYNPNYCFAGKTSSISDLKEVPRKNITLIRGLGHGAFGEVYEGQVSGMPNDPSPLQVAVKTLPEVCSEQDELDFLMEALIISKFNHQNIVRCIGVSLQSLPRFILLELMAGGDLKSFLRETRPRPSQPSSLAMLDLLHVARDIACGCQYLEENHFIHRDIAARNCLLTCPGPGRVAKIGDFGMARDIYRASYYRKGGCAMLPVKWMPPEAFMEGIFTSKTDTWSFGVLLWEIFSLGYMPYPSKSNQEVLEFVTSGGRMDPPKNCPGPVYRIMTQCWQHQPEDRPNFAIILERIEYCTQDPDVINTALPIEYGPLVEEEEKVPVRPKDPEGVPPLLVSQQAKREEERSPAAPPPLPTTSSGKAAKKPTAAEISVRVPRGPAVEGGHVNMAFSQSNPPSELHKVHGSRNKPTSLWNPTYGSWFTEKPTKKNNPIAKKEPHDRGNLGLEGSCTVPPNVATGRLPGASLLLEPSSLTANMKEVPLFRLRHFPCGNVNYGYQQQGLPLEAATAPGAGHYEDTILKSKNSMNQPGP
Chain of TIE2 (Q02763 23-1124, species assumed): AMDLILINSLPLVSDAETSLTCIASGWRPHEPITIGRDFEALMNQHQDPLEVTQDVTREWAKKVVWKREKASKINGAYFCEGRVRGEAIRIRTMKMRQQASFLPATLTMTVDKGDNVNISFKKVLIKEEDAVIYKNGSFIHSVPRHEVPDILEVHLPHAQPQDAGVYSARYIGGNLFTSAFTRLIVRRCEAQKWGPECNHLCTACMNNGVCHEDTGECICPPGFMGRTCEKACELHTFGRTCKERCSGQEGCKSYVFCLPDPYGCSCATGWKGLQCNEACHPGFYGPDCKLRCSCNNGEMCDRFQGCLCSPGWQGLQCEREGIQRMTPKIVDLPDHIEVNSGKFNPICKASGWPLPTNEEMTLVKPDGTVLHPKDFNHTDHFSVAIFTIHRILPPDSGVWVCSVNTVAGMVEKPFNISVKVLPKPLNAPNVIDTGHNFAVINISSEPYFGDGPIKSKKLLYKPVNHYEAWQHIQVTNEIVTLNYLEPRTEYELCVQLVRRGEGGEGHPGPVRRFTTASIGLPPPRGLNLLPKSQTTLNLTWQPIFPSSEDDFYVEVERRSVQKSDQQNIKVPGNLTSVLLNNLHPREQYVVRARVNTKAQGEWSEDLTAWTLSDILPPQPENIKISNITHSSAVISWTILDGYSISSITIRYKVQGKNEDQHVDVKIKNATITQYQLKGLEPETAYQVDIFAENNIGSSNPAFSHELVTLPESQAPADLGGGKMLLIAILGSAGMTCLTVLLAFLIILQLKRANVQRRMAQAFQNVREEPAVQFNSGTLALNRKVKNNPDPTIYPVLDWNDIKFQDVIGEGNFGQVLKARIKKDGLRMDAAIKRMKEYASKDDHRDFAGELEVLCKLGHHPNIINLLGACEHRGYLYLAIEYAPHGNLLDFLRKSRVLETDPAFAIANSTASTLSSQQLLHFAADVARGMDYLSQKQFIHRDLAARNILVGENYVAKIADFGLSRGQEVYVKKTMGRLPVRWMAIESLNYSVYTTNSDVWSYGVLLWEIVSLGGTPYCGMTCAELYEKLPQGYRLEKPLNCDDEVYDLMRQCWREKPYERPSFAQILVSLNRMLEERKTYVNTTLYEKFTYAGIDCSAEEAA
Chain of CDK1 (P06493 whole entry, species assumed): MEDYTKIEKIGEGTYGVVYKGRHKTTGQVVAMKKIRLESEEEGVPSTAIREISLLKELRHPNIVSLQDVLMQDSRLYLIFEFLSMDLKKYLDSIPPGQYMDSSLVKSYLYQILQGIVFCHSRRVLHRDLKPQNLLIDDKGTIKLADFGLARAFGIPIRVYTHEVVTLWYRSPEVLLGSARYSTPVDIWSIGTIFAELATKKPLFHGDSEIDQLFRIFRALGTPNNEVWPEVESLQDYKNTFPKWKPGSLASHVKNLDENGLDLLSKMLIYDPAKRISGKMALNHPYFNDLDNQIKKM
Chain of CDK1 (P14635 whole entry partner, species assumed): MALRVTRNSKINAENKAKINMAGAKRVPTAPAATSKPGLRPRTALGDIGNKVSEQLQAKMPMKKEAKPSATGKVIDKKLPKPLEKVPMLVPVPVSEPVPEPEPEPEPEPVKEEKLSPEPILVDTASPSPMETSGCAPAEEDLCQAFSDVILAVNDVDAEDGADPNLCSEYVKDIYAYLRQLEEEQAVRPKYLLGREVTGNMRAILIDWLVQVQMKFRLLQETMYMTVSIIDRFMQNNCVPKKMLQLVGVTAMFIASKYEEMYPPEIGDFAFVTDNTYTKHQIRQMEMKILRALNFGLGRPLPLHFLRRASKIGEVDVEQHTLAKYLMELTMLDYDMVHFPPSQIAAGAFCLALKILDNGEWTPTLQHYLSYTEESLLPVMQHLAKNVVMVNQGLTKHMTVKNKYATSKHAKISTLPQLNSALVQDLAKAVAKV
Chain of CAMK4 (Q16566 whole entry, species assumed, the tested form may be a part): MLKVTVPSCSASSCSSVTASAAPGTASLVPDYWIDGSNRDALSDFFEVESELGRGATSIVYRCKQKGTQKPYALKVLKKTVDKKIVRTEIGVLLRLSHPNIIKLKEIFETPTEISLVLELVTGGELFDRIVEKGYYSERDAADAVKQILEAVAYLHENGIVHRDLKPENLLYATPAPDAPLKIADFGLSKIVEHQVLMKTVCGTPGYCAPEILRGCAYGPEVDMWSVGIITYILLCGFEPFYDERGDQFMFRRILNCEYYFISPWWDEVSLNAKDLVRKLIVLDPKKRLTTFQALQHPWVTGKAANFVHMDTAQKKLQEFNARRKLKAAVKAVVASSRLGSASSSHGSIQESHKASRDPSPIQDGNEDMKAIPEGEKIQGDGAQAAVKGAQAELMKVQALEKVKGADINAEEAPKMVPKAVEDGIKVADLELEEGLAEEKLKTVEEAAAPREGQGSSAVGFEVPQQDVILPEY

SMILES: CS(=O)(=O)CCNCc1ccc(-c2ccc3ncnc(Nc4ccc(OCc5cccc(F)c5)c(Cl)c4)c3c2)o1 [lapatinib]
HER2/HER3 signaling +/- NRG [1]: NRG rescues HER2/HER3 signaling
binding to HER2 mutants judged by signaling after short treatment [2]: does not efficiently bind to HER2 mutants biased towards the active conformation
concentration sufficient to inhibit the entire RTK signaling pathway [3]: greater than 100 nM

inhibition at 1 µM (TYK2): 51%
inhibition at 1 µM (CDK1): 18%
inhibition at 1 µM (CAMK4): 0%
SMILES: COc1ccc(-c2ccoc2)cc1Nc1ncnc2[nH]cc(-c3cc[nH]n3)c12 [compound 3, N-(5-(furan-3-yl)-2-methoxyphenyl)-5-(1H-pyrazol-3-yl)-7H-pyrrolo[2,3-d]pyrimidin-4-amine]
sensitivity of proliferation inhibition to NRG (SK-BR-3 cells): insensitive to the presence of NRG
inhibition of feedback activated HER2/HER3 signaling ([4]; CHL-1, after 24 h DMSO or 500 nM lapatinib, then 24 h dose response): better able to inhibit feedback activated HER2/HER3 signaling
inhibition of p-HER3 and PI3K/Akt pathway ([4]; CHL-1, dose response 24 h): better able to inhibit p-HER3 and thus the PI3K/Akt pathway
inhibition of pHER3 and downstream signaling [5]: better able to inhibit pHER3 and its downstream signaling pathways

potency against HER2 in vitro (HER2 kinase domain): equipotent to lapatinib
inhibition of HER3 auto-phosphorylation (ErbB3-ICD665-1323): able to inhibit
inhibition at 0.1 µM (TIE2; compound at 100 nM): 12.8%
inhibition at 1 µM (TIE2; compound at 1 μM): 59.7%
inhibition at 0.1 µM (ALK; compound at 100 nM): 6.14%
inhibition at 1 µM (ALK; compound at 1 μM): 19.8%
inhibition at 0.1 µM (EPH-B4; compound at 100 nM): 3.44%
inhibition at 1 µM (EPH-B4; compound at 1 μM): 21.7%
SMILES: COc1ccc(-c2ccco2)cc1Nc1ncnc2[nH]nc(-c3ccco3)c12 [compound 2, 3-(furan-2-yl)-N-(5-(furan-2-yl)-2-methoxyphenyl)-1H-pyrazolo[3,4-d]pyrimidin-4-amine]
